Test results published in patent publication US4859452A (priority 1987, dated 1989).
Read-outs that look alike come from different tables or passages of the source.

Assays:
[1] = human, in vivo
Source text: FIG. 4. Platelet counts plotted against days of continuous i.v. DFMO infusion in patients with advanced colorectal carcinoma. […] The paired points are connected by a straight line.
There was no incidence of nausea, vomiting or diarrhea.

[2] = Toxicity of continuous i.v. DFMO infusion for 12 days in tumor-bearing and non-tumor-bearing rats; format: in vivo, rat
Source text: FIG. 3. […] Bars indicate standard deviation.
In the above described rat model, a continuous infusion of DFMO was given through a central venous catheter.

[3] = tested on: DFMO-Induced Thrombocytopenia; conditions: rat, in vivo
Protocol: (§1) Central venous catheters were inserted into Fisher 344 male rats. […] This concentration is equimolar to the arginine concentration in 10% Travasol. After 12 days of infusion the rats were sacrificed and platelet counts were determined in peripheral blood.

[4] = tested on: ornithine decarboxylase (ODC); conditions: cited from earlier work
[5] = in words; tumor and RBC
Protocol: After obtaining the blood sample by venipuncture, or some other suitable means, blood hematocrit is determined and the blood is centrifuged for 10 minutes at 500 g. The plasma is removed for albumin determination and the remaining cells are washed with an equal volume of cold 0.9% NaCl and centrifuged at 200 g for 15 minutes. The buffy coat is then carefully aspirated along with the supernatant and discarded. After thoroughly mixing the packed RBC, a 1.0 ml aliquot is extracted for polyamine analysis. While shaking continuously with a Vortex mixer, 2.5 ml of freshly prepared 6% trichloroacetic acid (TCA) is added followed by 60 ul of 100% TCA. This is done to avoid insufficient mixing if 100% TCA is added directly to RBC. The samples are mixed thoroughly for a minimum of 3 minutes and frozen at -70° C. if further extraction steps are performed. The samples are thawed and centrifuged at 200×g for 15 minutes. The supernatant is then transferred to tubes containing 40 ul of concentrated HCl. The samples are washed twice with anhydrous ether and dried. The pellets are dissolved in 100 ul of 0.5 N HCl and centrifuged at 200 g. The clear supernatant is then analyzed for polyamines using, for example, a Durrum D-500 amino acid analyzer.
A methylcholanthrene-induced fibrosarcoma (0.17 g) was implanted as a brei into the right flank under anesthesia and the animals were fed a chow diet for 21 days. […]

[6] = RBC putrescine in tumor-bearing versus non tumor-bearing rats infused with feeding solutions; conditions: NTB rats; p<0.05
Source text: A methylcholanthrene-induced fibrosarcoma (0.17 g) was implanted as a brei into the right flank under anesthesia and the animals were fed a chow diet for 21 days. When the tumors were at least 1.0 cm in width, two-dimensional measurements with calipers were instituted and the equation, length (cm)×(width [cm])^2 ×1/2=grams of tumor tissue, was used to estimate tumor weight. […] The animals were then allowed to recover overnight and continuous infusions were started the next morning. […] After 6 days of continuous infusion, the animals were sacrificed by aortic bleeding. Liver and tumor were excised and weighed and kept frozen at -70° C. until assays were done. Only viable, nonnecrotic tumor tissue was saved and assayed.

[7] = tested on: DFMO-Induced Thrombocytopenia; assay: Influence of ornithine co-administration on DFMO-induced thrombocytopenia in the rat; conditions: in words
Protocol: as §1

NCCCC(N)(C(=O)O)C(F)F (stereo not shown) [DFMO, Difluoromethylornithine]
tumor growth (MCA sarcoma; MCA sarcoma): reduces the growth rate of an MCA sarcoma but does not produce tumor regression
effect on peripheral platelet counts (MCA sarcoma; rat, in vivo): without suppressing peripheral platelet counts
decreased hearing acuity, patients [1]: two
hematocrit [1]: Significant suppression of the hematocrit was also noted with a trend toward dose related suppression
nausea, vomiting or diarrhea [1]: no incidence
platelet suppression, 8 g dose compared with 6 g dose [1]: significantly greater platelet at the 8 g dose as compared with the 6 g dose
time to resolution of all toxicities after discontinuing infusion [1]: two
white cell count [1]: not affected by either dose
small intestinal mucosa histology ([2]; rat, in vivo): histological evidence of small intestinal mucosal atrophy
white cell count and hematocrit changes ([2]; rat, in vivo): not significantly altered
clinical toxicity ([2]; rats, 12 day study): no significant clinical toxicity
effect on platelet suppression / platelet count [3]: significant decrease in platelet count as compared with the saline treatment
ODC inhibition mode [4]: irreversible inhibitor of ODC

N=C(N)NCCC[C@H](N)C(=O)O [arginine]
comparison of ornithine and arginine for increase in polyamine levels [5]: both appeared to promote an increase in tumor-related levels
increase in RBC putrescine levels versus chow or essential amino acids only [6]: significantly greater (p<0.05) than those receiving chow or essential amino acids only

NCCC[C@H](N)C(=O)O [ornithine]
effect on platelet suppression / platelet count [7]: significant reversal in the platelet suppression
